# Patent publication US20220332708A1 (Cytokinetics, Inc., priority 2021, published 2022)
# System: Bovine cardiac myofibrils
# Assay: Dose-dependent myofibril ATPase modulation (calcium-buffered, pyruvate kinase and lactate dehydrogenase-coupled ATPase assay at pCa25)
# Format: biochemical
# Conditions: concentration at which ATPase activity was 1.4-fold higher than the bottom of the dose curve, mean of a minimum of two independent tests
# Method in brief: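 Detergent-skinned bovine cardiac myofibrils (typically 0.25-1.0 mg/ml) in a pyruvate kinase/lactate dehydrogenase-coupled ATPase assay, 1 mM ATP, pH 6.80, free Ca2+ set by EGTA buffer to pCa25. ATP hydrolysis followed by A340; 4-parameter fit, AC1.4 as mean of at least two independent tests.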
row,Structure (SMILES),AC1.4 [µM]
1,"Cc1cc(S(=O)(=O)N[C@@H]2COc3cc(F)c(Cl)cc3[C@@H]2O)cc(N2CC(O)C2)n1 [Compound 86, N-((3R,4S)-6-chloro-7-fluoro-4-hydroxychroman-3-yl)-2-(3-hydroxyazetidin-1-yl)-6-methylpyridine-4-sulfonamide]",13.53
2,"Cc1nn([C@H]2C[C@H](NS(=O)(=O)c3cc(C(=O)N4CC(C#N)C4)c(C)[nH]3)C2)cc1C(F)(F)F [Compound 56, 4-(3-Cyanoazetidine-1-carbonyl)-5-methyl-N-((trans)-3-(3-methyl-4-(trifluoromethyl)-1H-pyrazol-1-yl)cyclobutyl)-1H-pyrrole-2-sulfonamide]",0.9674
3,Cc1[nH]c(S(=O)(=O)N[C@@H]2Cc3cc(Cl)c(Cl)cc3[C@H]2O)cc1C(=O)N1CC(C)(C#N)C1 (racemic) [Compound 99],0.2635
4,"CNc1ccc(S(=O)(=O)Nc2ccc(N3C[C@H](C)C[C@@H](C)C3)nc2)cc1C(N)=O (relative stereo) [Compound 3, 5-(N-(6-(trans-3,5-dimethylpiperidin-1-yl)pyridin-3-yl)sulfamoyl)-2-(methylamino)benzamide]",11.94
5,"Cc1[nH]c(S(=O)(=O)N[C@@H]2Cc3cc(F)c(Cl)cc3C2)cc1C(=O)N1CC(C)(C#N)C1 (single isomer, unassigned) [Compound 83]",0.06985
6,"Cc1[nH]c(S(=O)(=O)N[C@@H]2CCc3cc(Cl)ccc3C2)cc1C(=O)N1CC(C)(C#N)C1 [Compound 67, (R)-N-(6-chloro-1,2,3,4-tetrahydronaphthalen-2-yl)-4-(3-cyano-3-methylazetidine-1-carbonyl)-5-methyl-1H-pyrrole-2-sulfonamide]",0.05605
7,"CNc1cc2c(cc1S(=O)(=O)N[C@]1(C)C[C@H](Nc3cccc(F)c3)C1)c(=O)[nH]c(=O)n2C [Compound 23, N-((cis)-3-((3-fluorophenyl)amino)-1-methylcyclobutyl)-1-methyl-7-(methylamino)-2,4-dioxo-1,2,3,4-tetrahydroquinazoline-6-sulfonamide]",0.6045
8,"Cc1cc(S(=O)(=O)N[C@@H]2COc3cc(F)c(Cl)cc3[C@@H]2O)cc(N2CC(C#N)C2)n1 [Compound 85, N-((3R,4S)-6-chloro-7-fluoro-4-hydroxychroman-3-yl)-2-(3-cyanoazetidin-1-yl)-6-methylpyridine-4-sulfonamide]",1.3618
9,"COCCNC(=O)c1cc(S(=O)(=O)NC2CCc3c([nH]c4ccccc34)C2)[nH]c1C (stereo not shown) [Compound 37, N-(2-methoxyethyl)-2-methyl-5-(N-(2,3,4,9-tetrahydro-1H-carbazol-2-yl)sulfamoyl)-1H-pyrrole-3-carboxamide]",2.9421
10,"CNc1cc2nc(C)[nH]c(=O)c2cc1S(=O)(=O)Nc1ccc(-c2ccccc2)cc1 [Compound 4, N-([1,1′-biphenyl]-4-yl)-2-methyl-7-(methylamino)-4-oxo-3,4-dihydroquinazoline-6-sulfonamide]",0.1832
11,"CNc1cc2nc(C)[nH]c(=O)c2cc1S(=O)(=O)N[C@H]1C[C@@H](Nc2cccc(F)c2)C1 [Compound 15, N-((cis)-3-((3-fluorophenyl)amino)cyclobutyl)-2-methyl-7-(methylamino)-4-oxo-3,4-dihydroquinazoline-6-sulfonamide]",1.019
12,"C[C@@H]1C[C@@H](C)CN(c2ccc(NS(=O)(=O)c3ccc(N(C)C)c(C#N)c3)cn2)C1 (racemic) [Compound 2, 3-Cyano-4-(dimethylamino)-N-(6-(trans-3,5-dimethylpiperidin-l-yl)pyridin-3-yl)benzenesulfonamide]",12.21
13,"Cc1[nH]c(S(=O)(=O)N[C@H]2Cc3cc(F)c(Cl)cc3C2)cc1C(=O)N1CC(C)(C#N)C1 (single isomer, unassigned) [Compound 84]",0.303
